Measurements: US20100268174A1, “COMBINATION OF ALCOHOL LOCK AND GENTIAN VIOLET CATHETER” (priority 2007, published 2010)

Tests used:
[1] = system: all organisms of interest
Protocol: Dilutions were prepared in Cationic Adjusted Mueller Hinton Broth (CAMHB). All tests were performed in microtiter plates with a total test volume of 100 μL, including diluted antimicrobial agent and inoculum. Concentrations of antimicrobial agents were prepared at 2× concentration, and 50 μL was added to each well of a microtiter plate, to which 50 μL of inoculum of the test organism was added to give the target test concentration.
Cells were subsequently centrifuged, and resuspended twice in phosphate buffered saline. The population of this bacterial suspension was determined by reading optical density at 670 nm. […] Initial concentrations were verified using the Miles and Misra drop count method. […] Incubation was at 37° C. for 16 to 20 hours.
To determine MBC values, 50 μl was removed from each well showing inhibition of growth (MIC and greater). Solutions from these inhibitory concentrations of antimicrobial agent were diluted in CAMHB to concentrations where they would no longer inhibit the growth of the test organism. Recovery counts were obtained by plating aliquots of the diluted material onto TSA plate containing 5% sheep's blood, and incubating 24 hours at 37° C.

most microorganisms = settings: Sissons et al. 1996; cited from earlier work
[2] = type: physicochemical
Protocol: One of the surprising findings about the temperature effects is that certain classes of polyurethanes are processable below the degradation temperature and other classes are not.
Compounding Conditions for Stable Gentian Violet:
Barrel Temperatures: • Zone 1-5=170° C. • Zone 6=175° C.,
Compounding Temperature for Degraded Gentian Violet:
Compounding was performed with Sigma Aldrich ACS grade gentian violet, lot 016K3691. HPLC analysis was performed by cutting and measuring 1 cm segments of each formulation (n=3) using the method described in Examples II and III.
The chromatograms show the stable gentian violet followed by the degraded gentian violet, at 588 nm, 253 nm, and 280 nm. The degradation peaks from the 217° C. sample are evident as the new peaks at 253 and 280 nm wavelengths. The chromatogram of the low processing temperature was identical to that of the Gentian Violet raw material.

[3] = Temperature effect (196-219 °C) on degradation of gentian violet compounded in Carbothane resin (HPLC); type: physicochemical; settings: compounded Carbothane resin with 0.5% GV
Protocol: Gentian violet contents from compounded resin and tube sample were analyzed via HPLC method. HPLC analysis on GV loaded resin or compounded pellets was performed by weighing 0.1-0.3 g, which is roughly equivalent to 10-20 pellets (depending on the weight of the raw material used) of each formulation (n=3) and digesting in THF (5 mL or 7.5 mL) in 50 mL centrifuge tubes. Samples were allowed to sit for 45 minutes, and then vortexed until all of the polymer dissolved. An equal amount of deionized (DI) water was then added (5 or 7.5 mL), and the samples were again vortexed for 5 minutes, and then centrifuged for 10 minutes. A portion of each sample was then added to an HPLC vial and capped prior to HPLC analysis. HPLC analysis was performed on an Agilent 1200 Series LC using an Agilent Eclipse XDB-CN 5μ 4.6×150 mm column with the corresponding guard column. A gradient program was run using two solvent reservoirs: 5 g of gentian violet (Sigma-Aldrich, St. […] Louis, Mo.). 1000 g of Carbothane®-3585A-B20 (Noveon, Cleveland, Ohio) resin was added in to the gentian violet/ethanol solution. The ethanol solvent was evaporated off in a chemical fume hood overnight at ambient conditions. The gentian violet coated pellets were then dried at 50° C. and 30 inches Hg for 24 hrs prior to compounding. […] The melt temperatures from each run are recorded in Table 6. […]

[4] = Temperature effect (high temperatures) on degradation of gentian violet compounded in Carbothane resin (HPLC); type: physicochemical; settings: drop in extractable GV content
Protocol: Gentian violet contents from compounded resin and tube sample were analyzed via HPLC method. HPLC analysis on GV loaded resin or compounded pellets was performed by weighing 0.1-0.3 g, which is roughly equivalent to 10-20 pellets (depending on the weight of the raw material used) of each formulation (n=3) and digesting in THF (5 mL or 7.5 mL) in 50 mL centrifuge tubes. Samples were allowed to sit for 45 minutes, and then vortexed until all of the polymer dissolved. An equal amount of deionized (DI) water was then added (5 or 7.5 mL), and the samples were again vortexed for 5 minutes, and then centrifuged for 10 minutes. A portion of each sample was then added to an HPLC vial and capped prior to HPLC analysis. HPLC analysis was performed on an Agilent 1200 Series LC using an Agilent Eclipse XDB-CN 5μ 4.6×150 mm column with the corresponding guard column. A gradient program was run using two solvent reservoirs: The sample preparation for loading GV on resin pellets is similar to EXAMPLE V. Gentian violet was purchased from (Sigma-Aldrich, St. Louis, Mo.) and Carbothane®-3585A-B20 (Noveon, Cleveland, Ohio) was used. The heating profile was varied for each run.

CCO [ethanol]
concentration at which the solution will not inhibit microbial growth [1]: below 7% | subinhibitory concentration ([1]; for all organisms of interest): 5% | ethanol lock concentration cidal towards most commonly encountered infectious pathogens ([1]; suggested by the Table 1 results): above 25% | concentration generally considered bactericidal (most microorganisms): ≥ 40% | concentration that inhibits the growth of most microorganisms (most microorganisms): 10%

CN(C)c1ccc(C(=C2C=CC(=[N+](C)C)C=C2)c2ccc(N(C)C)cc2)cc1 [gentian violet]
processing temperature at which degradation starts [2]: about 209 °C | processing temperature at which extruded gentian violet was found to degrade [2]: 217 °C | processing temperature that does not degrade gentian violet [2]: under 207 °C | processing temperature up to which GV content is essentially unchanged [3]: ≤ 206 °C | onset of degradation (processing temperature) ([3]; worse at 219° C.): 209 °C | temperature above which there is significant degradation of the GV [4]: above 220 °C
